# Reference: ChEMBL document CHEMBL1201862, “PubChem BioAssay data set” (2004)
#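 Following 48 hours of exposure in 96-well plates, responses at five concentrations were used to interpolate endpoints linearly. Here, GI50 denotes the concentration required for 50% inhibition of growth.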 Active and inactive are the calls of the source. Rule as the data show it: active = GI50 up to about 1.1 µM and inactive = higher.
# How the values were obtained:
# Assay in all cases: NCI anticancer screen, dose series, 48 h
# [1] = tested on: SK-MEL-5
# [2] = tested on: KM12
# [3] = tested on: SK-MEL-2
# [4] = tested on: SNB-19
# [5] = tested on: OVCAR-3
# [6] = tested on: OVCAR-8
# [7] = tested on: SF-539
# [8] = tested on: NCI-H522
# [9] = tested on: NCI-H23
# [10] = tested on: SF-268
# [11] = tested on: SK-MEL-28
# [12] = tested on: K562
# [13] = tested on: MOLT-4
# [14] = tested on: SW-620
# [15] = tested on: ACHN
# [16] = tested on: OVCAR-5
# [17] = tested on: Malme-3M
# [18] = tested on: LOX IMVI
# [19] = tested on: SNB-75
# [20] = tested on: MDA-N
SMILES,GI50 [1],GI50 [2],GI50 [3],GI50 [4],GI50 [5],GI50 [6],GI50 [7],GI50 [8],GI50 [9],GI50 [10],GI50 [11],GI50 [12],GI50 [13],GI50 [14],GI50 [15],GI50 [16],GI50 [17],GI50 [18],GI50 [19],GI50 [20]
Cc1nc2c(sc(=S)n2-c2ccccc2)c(=O)[nH]1,> 100 µM (inactive),> 100 µM (inactive),> 100 µM (inactive),> 100 µM (inactive),> 100 µM (inactive),> 100 µM (inactive),> 100 µM (inactive),> 100 µM (inactive),> 100 µM (inactive),> 100 µM (inactive),> 100 µM (inactive),> 100 µM (inactive),> 100 µM (inactive),> 100 µM (inactive),> 100 µM (inactive),> 100 µM (inactive),> 100 µM (inactive),–,–,–
COc1ccccc1C1C(Cl)C(=O)N1n1cnc2ccccc2c1=O (configuration not stated),> 100 µM (inactive),> 100 µM (inactive),> 100 µM (inactive),75 µM (inactive),> 100 µM (inactive),> 100 µM (inactive),–,> 100 µM (inactive),> 100 µM (inactive),> 100 µM (inactive),> 100 µM (inactive),> 100 µM (inactive),> 100 µM (inactive),> 100 µM (inactive),> 100 µM (inactive),> 100 µM (inactive),> 100 µM (inactive),> 100 µM (inactive),40.6 µM (inactive),–
CCCCCCCCC(O)c1ccc(/C=C\C(O)CCCC(=O)O)s1 (configuration not stated),> 100 µM (inactive),> 100 µM (inactive),> 100 µM (inactive),> 100 µM (inactive),> 100 µM (inactive),> 100 µM (inactive),> 100 µM (inactive),> 100 µM (inactive),> 100 µM (inactive),> 100 µM (inactive),> 100 µM (inactive),> 100 µM (inactive),> 100 µM (inactive),> 100 µM (inactive),> 100 µM (inactive),> 100 µM (inactive),> 100 µM (inactive),> 100 µM (inactive),> 100 µM (inactive),–
Cc1cc(NC(=S)SCc2ccc(F)cc2)c([N+](=O)[O-])cc1C,8.71 µM (inactive),19.9 µM (inactive),–,23.2 µM (inactive),22.6 µM (inactive),19 µM (inactive),23.8 µM (inactive),–,29.8 µM (inactive),31.5 µM (inactive),39.1 µM (inactive),32.3 µM (inactive),3.29 µM (inactive),27.5 µM (inactive),32.4 µM (inactive),21.6 µM (inactive),25.6 µM (inactive),–,46.9 µM (inactive),–
c1c2c(cc(-n3nnc4c3CCCCCC4)c1-n1nnc3c1CCCCCC3)CCCCCC2,11.7 µM (inactive),11.8 µM (inactive),13.1 µM (inactive),12.8 µM (inactive),12.1 µM (inactive),12.7 µM (inactive),–,0.485 µM (active),> 10 µM (inactive),9.46 µM (inactive),17.2 µM (inactive),4.36 µM (inactive),2.57 µM (inactive),11.2 µM (inactive),5.71 µM (inactive),15.8 µM (inactive),–,11.8 µM (inactive),12.7 µM (inactive),–
O=[N+]([O-])c1cccc2nc3ccccc3c(NCCNCCO)c12,0.00153 µM (active),0.0122 µM (active),0.00281 µM (active),0.0349 µM (active),0.00558 µM (active),0.00733 µM (active),0.0326 µM (active),0.00109 µM (active),0.00146 µM (active),0.00134 µM (active),0.047 µM (active),0.00427 µM (active),0.00402 µM (active),0.00899 µM (active),0.00875 µM (active),0.0109 µM (active),0.00877 µM (active),0.00413 µM (active),0.0188 µM (active),–
COc1cc(C2C(C(=O)O)=C(COC(C)=O)Oc3cc4c(cc32)OCO4)cc(OC)c1OC (configuration not stated),> 100 µM (inactive),–,> 100 µM (inactive),> 100 µM (inactive),> 100 µM (inactive),> 100 µM (inactive),–,–,> 100 µM (inactive),–,> 100 µM (inactive),> 100 µM (inactive),> 100 µM (inactive),> 100 µM (inactive),> 100 µM (inactive),> 100 µM (inactive),> 100 µM (inactive),> 100 µM (inactive),41 µM (inactive),–
CCOC(=O)CCSS(=O)(=O)C(F)(F)F,> 100 µM (inactive),> 100 µM (inactive),> 100 µM (inactive),> 100 µM (inactive),> 100 µM (inactive),> 100 µM (inactive),–,–,> 100 µM (inactive),–,> 100 µM (inactive),–,–,> 100 µM (inactive),> 100 µM (inactive),> 100 µM (inactive),–,> 100 µM (inactive),> 100 µM (inactive),> 100 µM (inactive)
C=C1c2c(cc3c(c2O)c(=O)c2ccccc2n3C)OC1(C)C,> 100 µM (inactive),–,40.3 µM (inactive),34.4 µM (inactive),> 100 µM (inactive),52.6 µM (inactive),35.2 µM (inactive),2.95 µM (inactive),7.89 µM (inactive),31.6 µM (inactive),> 100 µM (inactive),> 10 µM (inactive),> 100 µM (inactive),> 100 µM (inactive),46.9 µM (inactive),–,> 100 µM (inactive),> 100 µM (inactive),16.9 µM (inactive),–
O=C(NC(Cc1ccc(I)cc1)C(=O)O)c1ccc(I)cc1 (configuration not stated),> 75.3 µM (inactive),> 100 µM (inactive),> 80.4 µM (inactive),54.7 µM (inactive),41.5 µM (inactive),> 74.8 µM (inactive),> 74 µM (inactive),38.8 µM (inactive),> 80.2 µM (inactive),> 60 µM (inactive),53.3 µM (inactive),59.6 µM (inactive),51.5 µM (inactive),–,–,> 100 µM (inactive),67.1 µM (inactive),> 100 µM (inactive),21.2 µM (inactive),–
Nc1nc(N)c2cc(Sc3ccc4nc(N)nc(N)c4c3)ccc2n1,–,2.15 µM (inactive),> 100 µM (inactive),4.23 µM (inactive),> 31.6 µM (inactive),0.181 µM (active),> 100 µM (inactive),–,–,0.136 µM (active),> 100 µM (inactive),< 0.01 µM (active),0.0524 µM (active),–,0.493 µM (active),> 100 µM (inactive),–,0.0408 µM (active),> 100 µM (inactive),> 100 µM (inactive)
CC(C)(C)[Si](C)(C)OCC1OC(n2cnc3c(NC(=O)c4ccccc4)ncnc32)CC1O (configuration not stated),17.5 µM (inactive),34.7 µM (inactive),27.2 µM (inactive),28.6 µM (inactive),39.9 µM (inactive),39.3 µM (inactive),23.3 µM (inactive),14.4 µM (inactive),48.9 µM (inactive),64.4 µM (inactive),36.7 µM (inactive),23.4 µM (inactive),19 µM (inactive),40.9 µM (inactive),31.4 µM (inactive),36.7 µM (inactive),30.5 µM (inactive),18.7 µM (inactive),26.7 µM (inactive),–
CC1C(=O)C(C)C(c2cccs2)N(N=O)C1c1cccs1 (configuration not stated),> 100 µM (inactive),> 100 µM (inactive),> 89.9 µM (inactive),> 100 µM (inactive),9.27 µM (inactive),> 100 µM (inactive),> 100 µM (inactive),37.7 µM (inactive),> 100 µM (inactive),> 100 µM (inactive),> 100 µM (inactive),> 80.5 µM (inactive),> 100 µM (inactive),> 100 µM (inactive),–,> 100 µM (inactive),–,> 100 µM (inactive),28.1 µM (inactive),–
Cc1cc2c(cc1C)N1Cc3c(ccc(C)c3C)N(C2)C1.Cc1cc2c(cc1C)N1Cc3cc(C)c(C)cc3N(C2)C1,> 100 µM (inactive),> 100 µM (inactive),–,> 100 µM (inactive),> 100 µM (inactive),> 100 µM (inactive),> 100 µM (inactive),53.6 µM (inactive),92.5 µM (inactive),> 100 µM (inactive),> 100 µM (inactive),70.8 µM (inactive),> 100 µM (inactive),> 100 µM (inactive),–,–,–,86.7 µM (inactive),> 100 µM (inactive),–
Fc1ccccc1C1CC(C(c2ccccc2)c2ccccc2)=Nc2ccccc2S1 (configuration not stated),11.2 µM (inactive),5.38 µM (inactive),7.89 µM (inactive),14.4 µM (inactive),11.3 µM (inactive),7.71 µM (inactive),21.9 µM (inactive),6.79 µM (inactive),5.89 µM (inactive),11.4 µM (inactive),12.6 µM (inactive),2.73 µM (inactive),2.71 µM (inactive),6.04 µM (inactive),11.7 µM (inactive),12.1 µM (inactive),16 µM (inactive),5.78 µM (inactive),1.13 µM (inactive),–
COc1ccc(/C=C2\CCNC2=O)cc1,> 100 µM (inactive),> 100 µM (inactive),> 100 µM (inactive),> 100 µM (inactive),> 100 µM (inactive),> 100 µM (inactive),> 76.6 µM (inactive),> 100 µM (inactive),> 100 µM (inactive),> 100 µM (inactive),> 100 µM (inactive),> 100 µM (inactive),> 100 µM (inactive),> 100 µM (inactive),–,> 100 µM (inactive),> 100 µM (inactive),> 100 µM (inactive),> 47.1 µM (inactive),–
